In patent publication US4426390A, “Novel β-lactam compounds, process for producing thereof, and use thereof as medicines” (Sanraku-Ocean Co., Ltd., priority 1980, dated 1984):
≈ marks a conversion by molar mass, not a printed value. Where two headings read alike, the source gives them in different places.

Columns and labels:
[1] = Stability (half life) in phosphate buffers of various pH; assay type: physicochemical; conditions: 28° C.
Procedure: By adding 2% sodium hydroxide or 10% hydrochloric acid, the pH of 0.05 M phosphate buffer is adjusted to 4, 5, 6, 7, 8 and 9, respectively, and distributed into test tubes in an amount of 3 ml. Concentrated solution of antibiotic OA-6129A (0.05 ml) is added to each test tube and allowed to stand in a thermostatic chamber of 28° C. The time course curve of the concentration decrease of antibiotic OA-6129A is drawn by spectrophotometric measurement at 300 nm, from which the half life of the antibiotic at the indicated pH is calculated. As a control, antibiotic PS-5, a carbapenem compound described in the above-cited reference is simultaneously tested.

Comamonas terrigena B996 = experiment: MIC by agar dilution method; assay type: cell-based; conditions: 37° C., 18 hours
Procedure: (§1) The MIC is measured by an agar dilution method based on the standard method of the Japanese Society of Chemotherapy (Japanese Society of Chemotherapy: The Revised Method of Determination of MIC Values, Chemotherapy 22, 1126-1128, […]). Specifically, the antibiotic is serially diluted with a 1/50 M phosphate buffer at a pH of 7.3 to prepare a twofold dilution series. One milliliter of each dilution and 9 ml of an agar medium (Heart Infusion Agar; a product of Difco Laboratories) are mixed and allowed to solidify in a Petri dish having a diameter of 9 cm. One loopful of the stock culture of the test microbe is inoculated in trypto-soy buillon (a product of Eiken Kagaku Co., Ltd.) and incubated at 37° C. for 18 hours. The resulting culture broth is diluted to a concentration of about 10^6 cells/ml with physiological saline and inoculated on the agar plate by means of a microplanter.

Alcaligenes Faecolis A1 = experiment: MIC by agar dilution method; assay type: cell-based; conditions: Alcaligenes Faecolis A1; agar dilution, 37° C., 18 hours; read-out: MIC
Procedure: as §1

Serratia marcesceus S18 = experiment: MIC by agar dilution method; assay type: cell-based; conditions: 37° C., 18 hours
Procedure: as §1

Ent. sp. E8 = experiment: MIC by agar dilution method; assay type: cell-based; conditions: Ent. sp. E8; agar dilution, 37° C., 18 hours; read-out: MIC
Procedure: as §1

[2] = test system: Citrobacter Freundii GN346; experiment: MIC by agar dilution method; assay type: cell-based; conditions: 37° C., 18 hours
Procedure: as §1

Ps. aeruginosa NCTC10490 = experiment: MIC by agar dilution method; assay type: cell-based; conditions: Pseudomonas aeruginosa, 37° C., 18 hours
Procedure: as §1

Sarcina lutea S19 = experiment: MIC by agar dilution method; assay type: cell-based; conditions: Micrococcus luteus, 37° C., 18 hours
Procedure: as §1

S. aureus Russell = experiment: MIC by agar dilution method; assay type: cell-based; conditions: Staphylococcus aureus; S. aureus Russell; agar dilution, 37° C., 18 hours; read-out: MIC
Procedure: as §1

[3] = test system: Pseudomonas aenginosa IFO3445; experiment: MIC by agar dilution method; assay type: cell-based; conditions: 37° C., 18 hours
Procedure: as §1

Proteus mirabilis P6 = experiment: MIC by agar dilution method; assay type: cell-based; conditions: Proteus mirabilis P6; agar dilution, 37° C., 18 hours; read-out: MIC
Procedure: as §1

[4] = test system: Bacillus subtillis ATCC 6633; experiment: MIC by agar dilution method; assay type: cell-based
Procedure: as §1

Providencia sp. P8 = experiment: MIC by agar dilution method; assay type: cell-based; conditions: Providencia sp. P8; agar dilution, 37° C., 18 hours; read-out: MIC
Procedure: as §1

P. rettgeri P7 = experiment: MIC by agar dilution method; assay type: cell-based; conditions: Providencia rettgeri; P. rettgeri P7; agar dilution, 37° C., 18 hours; read-out: MIC
Procedure: as §1

Ser. marcesceus T55 = experiment: MIC by agar dilution method; assay type: cell-based; conditions: 37° C., 18 hours
Procedure: as §1

P. vulgaris GN76 = experiment: MIC by agar dilution method; assay type: cell-based; conditions: Proteus vulgaris, 37° C., 18 hours
Procedure: as §1

S. epidermidis = experiment: MIC by agar dilution method; assay type: cell-based; conditions: Staphylococcus epidermidis, 37° C., 18 hours
Procedure: as §1

[5] = test system: Enterobacter aerogenes E19; experiment: MIC by agar dilution method; assay type: cell-based; conditions: Klebsiella aerogenes, 37° C., 18 hours
Procedure: as §1

E. coli RGN823 = experiment: MIC by agar dilution method; assay type: cell-based; conditions: Escherichia coli, 37° C., 18 hours
Procedure: as §1

Escherichia coli K-12 = experiment: MIC by agar dilution method; assay type: cell-based; conditions: K12; Escherichia coli K-12; agar dilution, 37° C., 18 hours; read-out: MIC
Procedure: as §1

[6] = test system: Staphylococcus aureus 209P; experiment: MIC by agar dilution method; assay type: cell-based; conditions: 37° C., 18 hours
Procedure: as §1

[7] = test system: Klebsiella pneumoniae K13; experiment: MIC by agar dilution method; assay type: cell-based; conditions: 37° C., 18 hours
Procedure: as §1

Ent. cloacae 45 = experiment: MIC by agar dilution method; assay type: cell-based; conditions: Enterobacter cloacae, 37° C., 18 hours
Procedure: as §1

S. aureus Smith = experiment: MIC by agar dilution method; assay type: cell-based; conditions: Staphylococcus aureus, 37° C., 18 hours
Procedure: as §1

Proteus vulgaris GN76 = experiment: Disc assay of synergy, inhibition zones; assay type: cell-based; conditions: disc OA-6129B2, PS-5 100 μg/ml, CER, PCG 1000 μg/ml; for zone of inhibition at 100 µg/mL: Proteus vulgaris, GN76, plate: None, read-out: diameter of inhibition zones
Procedure: (§2) (B) The presence or absence of synergy is visually checked by the size difference in inhibitory zones observed when the test drug is disc-assayedon an agar plate of a detector microbe and on an agar plate of the detector containing cephaloridine or benzylpenicillin, respectively.
(§3) One loopful of the stock culture of a test organism is inoculated in heat infusion broth (5 ml/tube), and grown at 37° C. for 18 hours. The culture broth is diluted to a final concentration of about 10^5 cells/ml in nutrient agar with or without benzyl penicillin or cephaloridine, and plated in a Petri dish with a diameter of 9 cm, as shown below.
(§4) Using the above-prepared agar plates, antibiotic PS-5 (100 μg/ml), antibiotic OA-6129B2 (5,6-trans OA-6129B) (100 μg/ml), benzylpenicillin (1000 μg/ml) and cephaloridine (1000 μg/ml) are subjected to disc assay.

[8] = test system: Citrobacter Freundii GN346; experiment: Disc assay of synergy, inhibition zones; assay type: cell-based; conditions: disc OA-6129B2, PS-5 100 μg/ml, CER, PCG 1000 μg/ml; for zone of inhibition at 100 µg/mL: Citrobacter freundii, GN346, plate: None, read-out: diameter of inhibition zones
Procedure: as §2, §3, §4

Enterobacter cloacac 45 = experiment: Disc assay of synergy, inhibition zones; assay type: cell-based; conditions: disc OA-6129B2, PS-5 100 μg/ml, CER, PCG 1000 μg/ml; for zone of inhibition at 100 µg/mL: Enterobacter, 45, plate: None, read-out: diameter of inhibition zones
Procedure: as §2, §3, §4

Serratia marccscens T55 = experiment: Disc assay of synergy, inhibition zones; assay type: cell-based; conditions: disc OA-6129B2, PS-5 100 μg/ml, CER, PCG 1000 μg/ml; for zone of inhibition at 100 µg/mL: Serratia, T55, plate: None, read-out: diameter of inhibition zones
Procedure: as §2, §3, §4

[9] = plate: + PCG, reduced to 5 μg/ml (final concentration)

Compound: CCC1C(=O)N2C(C(=O)O)=C(SCCNC(C)=O)CC12 (stereo not shown) [PS-5, reference compound]
- half-life ([1]; pH 4, 0.05 M phosphate buffer): 12 min
- half-life ([1]; pH 5, 0.05 M phosphate buffer): 206 min
- half-life ([1]; pH 6, 0.05 M phosphate buffer): 792 min
- half-life ([1]; pH 7, 0.05 M phosphate buffer): 2290 min
- half-life ([1]; pH 8, 0.05 M phosphate buffer): 4680 min
- half-life ([1]; pH 9, 0.05 M phosphate buffer): 2170 min
- MIC (Comamonas terrigena B996): 0.012 µg/mL (≈ 0.0402 µM)
- MIC (Alcaligenes Faecolis A1): 0.78 µg/mL (≈ 2.61 µM)
- MIC (Serratia marcesceus S18): 3.13 µg/mL (≈ 10.5 µM)
- MIC (Ent. sp. E8): 3.13 µg/mL (≈ 10.5 µM)
- MIC [2]: 3.13 µg/mL (≈ 10.5 µM)
- MIC (Ps. aeruginosa NCTC10490): 12.5 µg/mL (≈ 41.9 µM)
- MIC (Sarcina lutea S19): 0.1 µg/mL (≈ 0.335 µM)
- MIC (S. aureus Russell): 0.2 µg/mL (≈ 0.67 µM)
- MIC [3]: 12.5 µg/mL (≈ 41.9 µM)
- MIC (Proteus mirabilis P6): 6.25 µg/mL (≈ 20.9 µM)
- MIC ([4]; ATCC6633, Bacillus subtillis ATCC 6633, agar dilution, 37° C., 18 hours, read-out: MIC): 0.1 µg/mL (≈ 0.335 µM)
- MIC (Providencia sp. P8): 3.13 µg/mL (≈ 10.5 µM)
- MIC (P. rettgeri P7): 3.13 µg/mL (≈ 10.5 µM)
- MIC (Ser. marcesceus T55): 6.25 µg/mL (≈ 20.9 µM)
- MIC (P. vulgaris GN76): 6.25 µg/mL (≈ 20.9 µM)
- MIC (S. epidermidis): 0.2 µg/mL (≈ 0.67 µM)
- MIC [5]: 3.13 µg/mL (≈ 10.5 µM)
- MIC (E. coli RGN823): 3.13 µg/mL (≈ 10.5 µM)
- MIC (Escherichia coli K-12): 1.56 µg/mL (≈ 5.23 µM)
- MIC [6]: 0.024 µg/mL (≈ 0.0804 µM)
- MIC [7]: 3.13 µg/mL (≈ 10.5 µM)
- MIC (Ent. cloacae 45): 3.13 µg/mL (≈ 10.5 µM)
- MIC (S. aureus Smith): 0.2 µg/mL (≈ 0.67 µM)
- zone of inhibition at 100 µg/mL (Proteus vulgaris GN76): 17.5 mm
- diameter of inhibition zones (Proteus vulgaris GN76; plate: + CER): 23.5 mm
- diameter of inhibition zones (Proteus vulgaris GN76; plate: + PCG): 25.0 mm
- zone of inhibition at 100 µg/mL [8]: 22.5 mm
- diameter of inhibition zones ([8]; plate: + CER): 24.0 mm
- diameter of inhibition zones ([8]; plate: + PCG): 23.5 mm
- zone of inhibition at 100 µg/mL (Enterobacter cloacac 45): 20 mm
- diameter of inhibition zones (Enterobacter cloacac 45; plate: + CER): 22.5 mm
- diameter of inhibition zones (Enterobacter cloacac 45; plate: + PCG): 21.0 mm
- zone of inhibition at 100 µg/mL (Serratia marccscens T55): 23.5 mm
- diameter of inhibition zones (Serratia marccscens T55; plate: + CER): 34.0 mm
- diameter of inhibition zones (Serratia marccscens T55; [9]): 24.0 mm

Compound: CC(O)[C@H]1C(=O)N2C(C(=O)O)=C(SCCNC(=O)CCNC(=O)C(O)C(C)(C)CO)C[C@H]12 (relative stereo) [OA-6129B2]
- MIC (Comamonas terrigena B996): 0.39 µg/mL (≈ 0.824 µM)
- MIC (Alcaligenes Faecolis A1): 6.25 µg/mL (≈ 13.2 µM)
- MIC (Serratia marcesceus S18): 25 µg/mL (≈ 52.8 µM)
- MIC (Ent. sp. E8): 25 µg/mL (≈ 52.8 µM)
- MIC [2]: 25 µg/mL (≈ 52.8 µM)
- MIC (Ps. aeruginosa NCTC10490): > 100 µg/mL
- MIC (Sarcina lutea S19): 6.25 µg/mL (≈ 13.2 µM)
- MIC (S. aureus Russell): 12.5 µg/mL (≈ 26.4 µM)
- MIC [3]: > 100 µg/mL
- MIC (Proteus mirabilis P6): 50 µg/mL (≈ 106 µM)
- MIC ([4]; Bacillus, ATCC6633, 18 h): 1.56 µg/mL (≈ 3.29 µM)
- MIC (Providencia sp. P8): 6.25 µg/mL (≈ 13.2 µM)
- MIC (P. rettgeri P7): 25 µg/mL (≈ 52.8 µM)
- MIC (Ser. marcesceus T55): 50 µg/mL (≈ 106 µM)
- MIC (P. vulgaris GN76): 50 µg/mL (≈ 106 µM)
- MIC (S. epidermidis): 12.5 µg/mL (≈ 26.4 µM)
- MIC [5]: 25 µg/mL (≈ 52.8 µM)
- MIC (E. coli RGN823): 12.5 µg/mL (≈ 26.4 µM)
- MIC (Escherichia coli K-12): 12.5 µg/mL (≈ 26.4 µM)
- MIC [6]: 6.25 µg/mL (≈ 13.2 µM)
- MIC [7]: 12.5 µg/mL (≈ 26.4 µM)
- MIC (Ent. cloacae 45): 50 µg/mL (≈ 106 µM)
- MIC (S. aureus Smith): 12.5 µg/mL (≈ 26.4 µM)
- zone of inhibition at 100 µg/mL (Proteus vulgaris GN76): 0 mm
- diameter of inhibition zones (Proteus vulgaris GN76; plate: + CER): 20.0 mm
- diameter of inhibition zones (Proteus vulgaris GN76; plate: + PCG): 19.5 mm
- zone of inhibition at 100 µg/mL [8]: 12 mm
- diameter of inhibition zones ([8]; plate: + CER): 16.0 mm
- diameter of inhibition zones ([8]; plate: + PCG): 13.0 mm
- zone of inhibition at 100 µg/mL (Enterobacter cloacac 45): 10 mm
- diameter of inhibition zones (Enterobacter cloacac 45; plate: + CER): 15.0 mm
- diameter of inhibition zones (Enterobacter cloacac 45; plate: + PCG): 12.0 mm
- zone of inhibition at 100 µg/mL (Serratia marccscens T55): 12 mm
- diameter of inhibition zones (Serratia marccscens T55; plate: + CER): 22.0 mm
- diameter of inhibition zones (Serratia marccscens T55; [9]): 12.0 mm
